For one assay, the system named is Mouse myocyte. Put plainly: Mouse myocyte lipolysis assay. It counts as cell-based. The following applies: 100 μM, differentiated myocytes. On the procedure: Cells were obtained from ATCC and cultured in Dulbecco's Modified Eagle's medium (DMEM) containing 20% fetal bovine serum and 1% penicillin/streptomycin at 37° C. in an incubator with 5% CO2 Once the cells became confluent, they were seeded into a tissue culture treated 96 well plate. The next day, the medium containing DMEM with 2% equine serum was used to start differentiation. Table 2 lists the tested compounds including those that reduced the release of glycerol (+, ++, or +++). The lipolytic rate of muscle triglycerides is associated with metabolic dysfunction including insulin resistance and liver steatosis. Compounds that lower lipolysis of adipocytes may improve metabolic function including improving insulin sensitivity and reducing liver steatosis, thus improving outcomes in patients with diabetes mellitus (e.g., prediabetes or type II diabetes) obesity, and hyperlipidemia.

The subject of a further assay is C57BL/6 mice. Description: In vivo evaluation in C57BL/6 mice fed a high-fat diet. The following applies: vs. HFD control group, up to day 84. As to the method:
Animals were allowed free access to food and drinking water for the entire study. Animals were weighed on a regular basis, and food and drinking water consumption monitored. Plasma and stool samples were collected at the beginning of the study and 42 days into the study. Additional blood was drawn from fasted mice 58 days into the study. Insulin tolerance tests were performed 72 or 73 days into the study. Following an approximate 4 h fast, 0.5 Units/kg insulin was administered intraperitoneally. Blood was collected pre-insulin challenge (t=0) and at t=15, 30, 60, 90, and 120 min following insulin challenge. Oral glucose tolerance tests were performed 79 or 80 days into the study. Following an approximate 4 h fast, 2 g/kg glucose was administered by oral gavage. Blood was collected pre-insulin challenge (t=0) and at t=15, 30, 60, 90, and 120 min following glucose challenge. At the end of the study, body weight, food consumption, blood glucose, serum ALT levels, serum AST levels, serum cholesterol (total cholesterol. HDL, and LDL levels), serum triglycerides levels, liver triglyceride levels, liver cholesterol levels, liver weight, subcutaneous were measured in all mice.

For `O=C(O)c1cc(O)ccc1O` [Gentisate], in the assay on Mouse myocyte, the “Free glycerol % DMSO” value is listed as “+++ (50%<: +++)”.

As for `CC(=O)O[C@@H]1OC[C@@H](OC(C)=O)[C@H](OC(C)=O)[C@H]1OC(C)=O` [compound 4], the body weight result in the assay with C57BL/6 mice is recorded as “induce weight loss”.

The values are drawn from US20220296563A1, “ACYLATED ACTIVE AGENTS AND METHODS OF THEIR USE FOR THE TREATMENT OF METABOLIC DISORDERS AND NONALCOHOLIC FATTY LIVER DISEASE” (Flagship Pioneering Innovations V, Inc., priority 2019, published 2022).
